Assay results from patent US20130272963A1, “Cholesterol Efflux Assay Probe Formulations, Methods of Making and Using” (THE OHIO STATE UNIVERSITY, priority 2012, published 2013).

Experiment: Drug loading of CHEAP formulation
Conditions: hydrophobic model drugs loaded into CHEAP
Protocol: The intracellular delivery of hydrophobic drugs was conducted using a CHEAP formulation vehicle. Loading, as well as stability, of the drug-loaded CHEAP formulations was investigated on three different hydrophobic drugs. Rosiglitazone (RSG), Paclitaxel (PAX), and Tamoxifen (TAM) were used as model drugs for loading (FIG. 6A).

Row | binding affinity towards the CHEAP formulation | Compound
1 | high binding affinity | CC(=O)O[C@H]1C(=O)[C@@]2(C)[C@H]([C@H](OC(=O)c3ccccc3)[C@]3(O)C[C@H](OC(=O)[C@H](O)[C@@H](NC(=O)c4ccccc4)c4ccccc4)C(C)=C1C3(C)C)[C@]1(OC(C)=O)CO[C@@H]1C[C@@H]2O [PAX, Paclitaxel]
2 | high binding affinity | CC/C(=C(\c1ccccc1)c1ccc(OCCN(C)C)cc1)c1ccccc1 [TAM, Tamoxifen]
